What was measured:
[1] = tested on: CASOB (Sicklepod); assay: Preemergence herbicidal evaluation; type: in vivo, Cassia obtusifolia; settings: rated 4-5 weeks after treatment
Outline: (§1)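 In this greenhouse assay, monocot and dicot seeds are planted in soil and treated prior to emergence with an aqueous acetone spray (about 0.0156-0.500 kg/ha). Plants are assessed visually against control on a 0-9 scale after 4-5 weeks.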

[2] = tested on: CHEAL (Lambsquarters, Common); assay: Preemergence herbicidal evaluation; type: in vivo, Chenopodium album; settings: rated 4-5 weeks after treatment
Outline: as §1

[3] = tested on: ECHCG (Barnyardgrass); assay: Postemergence herbicidal evaluation; type: in vivo, Echinochloa crus-galli; settings: postemergence
Outline: (§2)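 Two-week-old seedlings sprayed with compound in 50/50 acetone/water plus 0.5% TWEEN 20, at about 0.0156 to 0.500 kg/ha, nozzle at 40 psi. Kept in greenhouse; rated visually 4-5 weeks after treatment on a 0-9 scale versus control, repeat tests averaged.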

[4] = tested on: ORYSAT (Rice, Tebonnet); assay: Preemergence herbicidal evaluation; type: in vivo, Oryza sativa, (L.) Tebonnet; settings: rated 4-5 weeks after treatment
Outline: as §1

[5] = tested on: CASOB (Sicklepod); assay: Postemergence herbicidal evaluation; type: in vivo, Cassia obtusifolia; settings: postemergence
Outline: as §2

[6] = tested on: GLXMAW (Soybean, Williams); assay: Postemergence herbicidal evaluation; type: in vivo, Glycine max, (L.) Merr. cv Williams; settings: postemergence
Outline: as §2

[7] = tested on: AMBEL (Ragweed, Common); assay: Postemergence herbicidal evaluation; type: in vivo, Ambrosia artemisifolia; settings: postemergence
Outline: as §2

[8] = tested on: IPOHE (Morningglory, Ivyleaf); assay: Preemergence herbicidal evaluation; type: in vivo, Ipomoea hederacea; settings: rated 4-5 weeks after treatment
Outline: as §1

[9] = tested on: GLXMAW (Soybean, Williams); assay: Preemergence herbicidal evaluation; type: in vivo, Glycine max, (L.) Merr. cv Williams; settings: rated 4-5 weeks after treatment
Outline: as §1

[10] = tested on: CHEAL (Lambsquarters, Common); assay: Postemergence herbicidal evaluation; type: in vivo, Chenopodium album; settings: postemergence
Outline: as §2

[11] = tested on: TRZAWR (Wheat, Winter, cv Riband); assay: Postemergence herbicidal evaluation; type: in vivo, Triticum aestivum; settings: postemergence
Outline: as §2

[12] = tested on: IPOHE (Morningglory, Ivyleaf); assay: Postemergence herbicidal evaluation; type: in vivo, Ipomoea hederacea; settings: postemergence
Outline: as §2

[13] = tested on: SAGPY (Arrowhead (Pygmaea)); assay: Preemergence weed control under flooded paddy conditions; type: in vivo, Sagittaria pygmaea; settings: rated 3-4 weeks after treatment
Outline: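 Visual injury scored 0-9 against control three to four weeks post-treatment, greenhouse-grown. Application: acetone/water (50/50) solutions dosed directly into flood water (1.5-3 cm over silt loam, planted top 0.5 cm), roughly 0.0313 to 0.500 kg/ha active ingredient.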

[14] = tested on: AMBEL (Ragweed, Common); assay: Preemergence herbicidal evaluation; type: in vivo, Ambrosia artemisifolia; settings: rated 4-5 weeks after treatment
Outline: as §1

[15] = tested on: ABUTH (Velvetleaf); assay: Preemergence herbicidal evaluation; type: in vivo, Abutilon theophrasti; settings: rated 4-5 weeks after treatment
Outline: as §1

CCOC(=O)[C@H](C)N1C(=O)CSC1=Nc1cc(-n2c(=O)cc(C(F)(F)F)n(C)c2=O)c(F)cc1Cl [Compound 76, Ethyl 2-{{2-chloro-5-[3,6-dihydro-3-methyl-2,6-dioxo-4-(trifluoromethyl)-1(2H)-pyrimidinyl]-4-fluorophenyl}imino}-α-methyl-4-oxo-3-thiazolidineacetate, L-]
Preemergence herbicidal rating CASOB ([1]; rate 0.0156 kg/ha): 0.0 | Preemergence herbicidal rating CASOB ([1]; rate 0.0313 kg/ha): 0.0 | Preemergence herbicidal rating CASOB ([1]; rate 0.0625 kg/ha): 0.0 | Preemergence herbicidal rating CASOB ([1]; rate 0.1250 kg/ha): 0.0 | Preemergence herbicidal rating CASOB ([1]; rate 0.2500 kg/ha): 1.0 | Preemergence herbicidal rating CHEAL ([2]; rate 0.0156 kg/ha): 9.0 | Preemergence herbicidal rating CHEAL ([2]; rate 0.0313 kg/ha): 9.0 | Preemergence herbicidal rating CHEAL ([2]; rate 0.0625 kg/ha): 9.0 | Preemergence herbicidal rating CHEAL ([2]; rate 0.1250 kg/ha): 9.0 | Preemergence herbicidal rating CHEAL ([2]; rate 0.2500 kg/ha): 9.0 | ECHCG herbicidal rating ([3]; rate 0.0158 kg/ha): 1.0 | ECHCG herbicidal rating ([3]; rate 0.0315 kg/ha): 1.0 | ECHCG herbicidal rating ([3]; rate 0.0630 kg/ha): 2.0 | Preemergence herbicidal rating ORYSAT ([4]; rate 0.0156 kg/ha): 0.0 | Preemergence herbicidal rating ORYSAT ([4]; rate 0.0313 kg/ha): 0.0 | Preemergence herbicidal rating ORYSAT ([4]; rate 0.0625 kg/ha): 3.0 | Preemergence herbicidal rating ORYSAT ([4]; rate 0.1250 kg/ha): 4.0 | Preemergence herbicidal rating ORYSAT ([4]; rate 0.2500 kg/ha): 5.0 | CASOB herbicidal rating ([5]; rate 0.0158 kg/ha): 1.0 | CASOB herbicidal rating ([5]; rate 0.0315 kg/ha): 4.0 | CASOB herbicidal rating ([5]; rate 0.0630 kg/ha): 5.0 | GLXMAW herbicidal rating ([6]; rate 0.0158 kg/ha): 4.0 | GLXMAW herbicidal rating ([6]; rate 0.0315 kg/ha): 5.5 | GLXMAW herbicidal rating ([6]; rate 0.0630 kg/ha): 6.0 | AMBEL herbicidal rating ([7]; rate 0.0158 kg/ha): 9.0 | AMBEL herbicidal rating ([7]; rate 0.0315 kg/ha): 9.0 | AMBEL herbicidal rating ([7]; rate 0.0630 kg/ha): 9.0 | Preemergence herbicidal rating IPOHE ([8]; rate 0.0156 kg/ha): 0.0 | Preemergence herbicidal rating IPOHE ([8]; rate 0.0313 kg/ha): 0.0 | Preemergence herbicidal rating IPOHE ([8]; rate 0.0625 kg/ha): 0.0 | Preemergence herbicidal rating IPOHE ([8]; rate 0.1250 kg/ha): 9.0 | Preemergence herbicidal rating IPOHE ([8]; rate 0.2500 kg/ha): 9.0 | Preemergence herbicidal rating GLXMAW ([9]; rate 0.0156 kg/ha): 0.0 | Preemergence herbicidal rating GLXMAW ([9]; rate 0.0313 kg/ha): 0.0 | Preemergence herbicidal rating GLXMAW ([9]; rate 0.0625 kg/ha): 3.0 | Preemergence herbicidal rating GLXMAW ([9]; rate 0.1250 kg/ha): 6.0 | Preemergence herbicidal rating GLXMAW ([9]; rate 0.2500 kg/ha): 9.0 | CHEAL herbicidal rating ([10]; rate 0.0158 kg/ha): 3.0 | CHEAL herbicidal rating ([10]; rate 0.0315 kg/ha): 7.0 | CHEAL herbicidal rating ([10]; rate 0.0630 kg/ha): 7.0 | TRZAWR herbicidal rating ([11]; rate 0.0158 kg/ha): 3.5 | TRZAWR herbicidal rating ([11]; rate 0.0315 kg/ha): 5.0 | TRZAWR herbicidal rating ([11]; rate 0.0630 kg/ha): 5.5 | IPOHE herbicidal rating ([12]; rate 0.0158 kg/ha): 9.0 | IPOHE herbicidal rating ([12]; rate 0.0315 kg/ha): 9.0 | IPOHE herbicidal rating ([12]; rate 0.0630 kg/ha): 9.0 | SAGPY herbicidal effect rating ([13]; 0.0313 kg/ha): 0.0 | SAGPY herbicidal effect rating ([13]; 0.0625 kg/ha): 0.0 | SAGPY herbicidal effect rating ([13]; 0.1250 kg/ha): 4.0 | SAGPY herbicidal effect rating ([13]; 0.2500 kg/ha): 4.0 | Preemergence herbicidal rating AMBEL ([14]; rate 0.0156 kg/ha): 0.0 | Preemergence herbicidal rating AMBEL ([14]; rate 0.0313 kg/ha): 0.0 | Preemergence herbicidal rating AMBEL ([14]; rate 0.0625 kg/ha): 7.0 | Preemergence herbicidal rating AMBEL ([14]; rate 0.1250 kg/ha): 9.0 | Preemergence herbicidal rating AMBEL ([14]; rate 0.2500 kg/ha): 9.0 | Preemergence herbicidal rating ABUTH ([15]; rate 0.0156 kg/ha): 1.0 | Preemergence herbicidal rating ABUTH ([15]; rate 0.0313 kg/ha): 1.0 | Preemergence herbicidal rating ABUTH ([15]; rate 0.0625 kg/ha): 9.0 | Preemergence herbicidal rating ABUTH ([15]; rate 0.1250 kg/ha): 9.0 | Preemergence herbicidal rating ABUTH ([15]; rate 0.2500 kg/ha): 9.0

— patent publication US20020137929A1, “1 - (3-heterocyclylphenyl) isothiourea, -isourea, -guanidine and -amidine herbicidal agents” (Intellectual Property Department, BASF Aktiengesellschaft, priority 1998, published 2002)
